Reference: US7423114B2, “GD2 ligands” (McGill University, priority 2002, dated 2008)
“Also recorded” adds a separate entry of the source.

Columns and labels:
[1] = test system: mAb 3F8-GD2 interactions; test: Competitive ELISA: inhibition of mAb 3F8 binding to immobilized GD2 by peptides; parameters: key to Activity in SAR and deletion analysis (inactive mark): peptides marked by * are inactive; conditions: for Activity in SAR and deletion analysis (inactive mark): Table 1 domains/peptides; for % Inhibition of mAb 3F8-GD2 interactions: peptides 50 μg/well, 1 hour before mAb 3F8, immobilized GD2, no peptide = 0%, no mAb 3F8 = 100%, mean ± SEM of 5 experiments
Protocol: Detection of GD2 or GM1 by ELISA: 12.5 ng/well of ganglioside (GD2, Advanced Immunochemicals or GM1) were immobilized by drying onto PVC 96-well plates (Falcon), followed by blocking with PBS-0.5% BSA for one hour. Then, anti-GD2 mAb 3F8 or biotin-CTB were added for 10 minutes. The plate was washed three times with PBS-0.5% BSA and incubated 60 minutes with horseradish peroxidase (HRP)-conjugated anti-mouse antibody or HRP-conjugated-avidin. After three washes with PBS-0.5% BSA and two with PBS, the colorimetric substrate ABTS was added and the plate read at 414 nm on a Biorad 550 plate reader. Assessment of peptide-GD2 interaction by competitive ELISA: ELISAs were as described above, except that peptides (50 μg/well, in PBS) were added to the wells for 1 hour before anti-GD2 mAb 3F8 or anti-GM1 cholera toxin-B. Selectivity of inhibition is controlled by lack of effect upon GM1-CTB interactions. […] No competitor peptide added or control irrelevant peptide added were standardized as 100% binding. […] Inhibition of mAb 3F8 bindng to immobilized GD2 by peptides, measured by competitive ELISA. No peptide or control peptide treatments are standardized as 0% inhibition. No mAb 3F8 treatment is standardized as 100% inhibition. Average of 5 […] experiments, n=4 in each experiment. Mean±SEM.

[2] = target: T1, human recombinant CD45 (Homo sapiens, UniProt P08575); test: In vitro CD45 phosphatase assay; type: biochemical; conditions: gangliosides 16.7 μM, pp60Src phosphoregulatory peptide substrate
T1 construct: purchased BioMol
T1 sequence (P08575 26-1306): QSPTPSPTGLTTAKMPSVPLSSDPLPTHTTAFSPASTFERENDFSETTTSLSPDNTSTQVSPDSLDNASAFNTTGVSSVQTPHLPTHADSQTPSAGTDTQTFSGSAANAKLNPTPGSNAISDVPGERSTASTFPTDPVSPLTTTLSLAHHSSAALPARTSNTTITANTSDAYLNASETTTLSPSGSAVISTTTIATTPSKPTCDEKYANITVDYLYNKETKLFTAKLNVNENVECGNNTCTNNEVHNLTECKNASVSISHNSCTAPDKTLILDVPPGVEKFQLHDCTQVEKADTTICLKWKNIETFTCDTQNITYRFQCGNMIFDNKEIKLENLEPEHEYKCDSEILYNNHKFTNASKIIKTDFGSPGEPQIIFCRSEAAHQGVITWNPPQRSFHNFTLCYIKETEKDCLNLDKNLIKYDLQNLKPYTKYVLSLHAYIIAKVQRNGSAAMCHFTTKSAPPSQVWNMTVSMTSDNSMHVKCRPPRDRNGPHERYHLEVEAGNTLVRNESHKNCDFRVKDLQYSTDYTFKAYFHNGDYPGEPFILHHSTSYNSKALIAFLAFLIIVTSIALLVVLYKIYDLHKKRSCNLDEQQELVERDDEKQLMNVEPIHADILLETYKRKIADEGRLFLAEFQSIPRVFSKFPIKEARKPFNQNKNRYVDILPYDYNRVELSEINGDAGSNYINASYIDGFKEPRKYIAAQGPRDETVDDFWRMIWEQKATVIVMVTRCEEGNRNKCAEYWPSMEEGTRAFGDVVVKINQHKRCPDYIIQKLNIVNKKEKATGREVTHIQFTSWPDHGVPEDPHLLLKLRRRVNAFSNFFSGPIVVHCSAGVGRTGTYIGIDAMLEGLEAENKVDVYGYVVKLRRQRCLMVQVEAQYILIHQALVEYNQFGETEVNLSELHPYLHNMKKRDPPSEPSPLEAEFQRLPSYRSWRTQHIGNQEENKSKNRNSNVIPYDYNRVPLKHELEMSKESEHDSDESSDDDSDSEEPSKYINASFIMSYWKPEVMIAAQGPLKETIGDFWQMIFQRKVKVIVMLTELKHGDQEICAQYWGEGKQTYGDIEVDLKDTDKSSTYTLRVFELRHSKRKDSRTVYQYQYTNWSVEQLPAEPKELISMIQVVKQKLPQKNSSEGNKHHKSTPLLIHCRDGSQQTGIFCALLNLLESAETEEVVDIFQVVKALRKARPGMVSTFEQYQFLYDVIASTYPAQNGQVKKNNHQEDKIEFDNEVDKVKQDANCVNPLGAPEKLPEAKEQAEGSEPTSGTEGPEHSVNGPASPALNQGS
Protocol: In vitro CD45 phosphatase assay: human recombinant CD45 enzyme (BioMol, 75 units/well) was preincubated in the absence (negative control) or presence of sodium orthovanadate (positive control) or various gangliosides (16.7 μM) for 20 minutes at room temperature in half-volume 96-well microtiter plates. A CD45-specific substrate (pp60^Src C-terminal phosphoregulatory peptide, 200 μM) was then added for 20 minutes at 30° C., afterwhich the reaction was stopped and quantified with BioMol Green reagent. Plates were read at 620 nm with a Biorad 550 platew reader.

[3] = target: T2, purified p56^Lck tyrosine kinase (Homo sapiens, UniProt P06239); test: Effect of exogenous gangliosides on in vitro kinase activity of purified p56Lck; type: biochemical; conditions: control assays
T2 construct: purchased Upstate Biotechnology
Protocol: The kinase activity of p56^Lck was evaluated by measuring the incorporation of ^32PO4 in a peptidic p56^Lck substrate over time, with or without GD2 or GM1. Presence of GD2, but not GM1, can positively alter the kinetics of p56^Lck kinase activity. Activity standardized to untreated p56^Lck at the 20 minute time point. Shown are averages of 3 to 5 assays±SEM.
Effect of exogenous GD2 on p56^Lck in vitro kinase assay: chromatographically purified p56^Lck tyrosine kinase (Upstate Biotechnology) was incubated on ice for 10 minutes in kinase buffer (100 mM Tris-HCl, pH 7.2, 125 mM MgCl2, 25 mM MnCl2, 2 mM EGTA, 150 μM ATP, 0.25 mM sodium orthovanadate, 2 mM DTT) with or without ˜20 fold molar excess of ganglioside and 10 μCi [γ-^32P]ATP. Then 10 μg of the Src kinase substrate peptide p34^cdc2(6-20) (Upstate Biothechnology) was added to the mix and incubated at room temperature for the times indicated, after which the reaction was stopped by addition of 100 μM iodoacetamide and by precipitation of proteins with final 10% TCA. The supematant (containing the phosphorylated peptide substrate, not precipitated by TCA) was spotted on a P81 paper (Whatman) and washed three times with 0.75% phosphoric acid and once with acetone. The [^32P]-peptide content was quantified using a Storm 840 phosphorimager with ImageQuant software.

[4] = test system: EL4 GD2^positive cells; test: Intracellular calcium by flow cytometry (Rhod-2 AM); type: cell-based, mouse; conditions: PP1 10 μM, EL4 GD2positive cells
Protocol: (c) Effect of GD2 ligands on intracellular calcium concentrations. Resting EL4 GD2positive cells were treated with mAb 3F8 (13 nM), control mouse IgG (mIg) or the calcium ionophore A23187. Intracellular calcium concentration was evaluated over time by flow cytometry using the calcium-sensitive fluorophore Rhod-2 AM. mAb 3F8 can induce strong, sustainable calcium changes withing 5 minutes, while control mouse IgG has no effect. […] Shown are averages of 4 independent assays ± SEM.
Intracellular calcium studies: cells (1×10^6 per sample) were washed with Ringer's solution (155 mM NaCl, 4.5 mM KCl, 2 mM CaCl2, 1 mM MgCl2, 10 mM D-glucose, 5 mM HEPES) and resuspended in 1 ml Ringer's containing 10 μM p56^Lck inhibitor PP1 (BioMol) or vehicle for 15 minutes at 37° C. Then 5 μM Rhod-2AM (Molecular Probes) was then added to the cells and incubated for 30 minutes at room temprature with mild agitation. Cells were washed once in Ringer's, resuspended in 1 ml Ringer's and incubated for 30 minutes, after which cells were stimulated with the indicated ganglioside ligands (or calcium ionophore A23187 as control) and analyzed over a 30 minute period for intracellular Ca^2+ using a flow cytometer (Becton-Dickinson).

T2 sequence (P06239 whole entry): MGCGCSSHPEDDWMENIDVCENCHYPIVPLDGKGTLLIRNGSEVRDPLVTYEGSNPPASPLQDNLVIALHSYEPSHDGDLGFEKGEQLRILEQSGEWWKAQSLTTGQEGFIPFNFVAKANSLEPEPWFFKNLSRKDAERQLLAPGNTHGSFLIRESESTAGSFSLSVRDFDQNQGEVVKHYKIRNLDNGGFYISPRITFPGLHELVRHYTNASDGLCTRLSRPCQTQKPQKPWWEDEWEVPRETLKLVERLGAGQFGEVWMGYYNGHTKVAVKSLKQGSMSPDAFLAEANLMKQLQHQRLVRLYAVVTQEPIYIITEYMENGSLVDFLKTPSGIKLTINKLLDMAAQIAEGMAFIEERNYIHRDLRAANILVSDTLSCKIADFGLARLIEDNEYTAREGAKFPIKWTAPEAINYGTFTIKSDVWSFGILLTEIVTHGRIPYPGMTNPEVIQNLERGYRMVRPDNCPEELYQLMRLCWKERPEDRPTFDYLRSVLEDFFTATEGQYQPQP

YCTNYGVHCY [core matches Pep 55 with added terminal Y residues]
Activity in SAR and deletion analysis (inactive mark) [1]: *

YCTNYGVCY [core matches Pep 56 with added terminal Y residues]
Activity in SAR and deletion analysis (inactive mark) [1]: *

C G G I T N Y N C (CGGITNYNC) [Pep 54]
% Inhibition of mAb 3F8-GD2 interactions [1]: 40.34 ± 3.17%

C G GI A N Y N C [Pep 58]
% Inhibition of mAb 3F8-GD2 interactions [1]: 47.60 ± 4.26%

C T N Y G V H C (CTNYGVHC) [Pep 55]
% Inhibition of mAb 3F8-GD2 interactions [1]: 12.23 ± 4.41%

C I T N Y N S C (CITNYNSC) [Pep 53]
% Inhibition of mAb 3F8-GD2 interactions [1]: 24.74 ± 3.29%

G G I A N Y N T S (GGIANYNTS) [Pep 57]
Activity in SAR and deletion analysis (inactive mark) [1]: * | % Inhibition of mAb 3F8-GD2 interactions [1]: 4.33 ± 5.23%

C T N Y G V C (CTNYGVC) [Pep 56]
% Inhibition of mAb 3F8-GD2 interactions [1]: 14.13 ± 5.43%

GD1a
Inhibition of CD45 phosphatase activity [2]: 50%

C G GI A N Y N T S C [Pep 59]
% Inhibition of mAb 3F8-GD2 interactions [1]: 48.83 ± 5.01%

C G G I T N Y N S A C (CGGITNYNSAC) [Pep 52]
% Inhibition of mAb 3F8-GD2 interactions [1]: 30.17 ± 2.69%

G G I T N Y N S A L M (GGITNYNSALM) [Pep 51]
Inhibition of GD2-mAb 3F8 interactions in ELISA, in words [1]: can also act as a competitive inhibitor | % Inhibition of mAb 3F8-GD2 interactions [1]: 44.96 ± 1.57%

C I A N Y N T C (CIANYNTC) [Pep 60]
% Inhibition of mAb 3F8-GD2 interactions [1]: 30.94 ± 3.53%

phosphatidylcholine
p56Lck kinase activity upon addition of exogenous lipid, in words [3]: not altered

Cc1ccc(-c2nn(C(C)(C)C)c3ncnc(N)c23)cc1 [PP1]
Effect of p56Lck inhibitor on mAb 3F8-induction of Ca++ fluxes [4]: markedly decreased; also recorded: partially abolished
